# Reference: ChEMBL document CHEMBL2046369, “Self-calibrating viscosity probes: design and subcellular localization” (Bioorg Med Chem, 2012)
# Columns and labels:
# [1] = Drug uptake in human T24 cell cytoplasm at 2 uM after 1 hr by Dil-C28 dye staining-based inverted microscopic analysis; type: ADME; settings: t-24, 1 h
# [2] = Drug uptake in human T24 cell cytoskeleton at 2 uM after 1 hr by Dil-C28 dye staining-based inverted microscopic analysis; type: ADME; settings: t-24, 1 h
SMILES,Drug uptake [1],Drug uptake [2]
COc1ccc2cc(C(=O)NCCOCCOCCOC(=O)/C(C#N)=C/c3ccc(N4CCCCC4)s3)c(=O)oc2c1,Active,
CCCCCCN(CCCCCC)c1ccc(/C=C(\C#N)C(=O)OCCCCCNC(=O)c2cc3ccc(OC)cc3oc2=O)s1,,Active
